Assay results published in US8877949B2, “Furo[3,2-g]chromene compounds and uses thereof” (Shenyang Pharmaceutical University, priority 2010, dated 2014).

Columns and labels:
uteri [1] = experiment: Uterotrophic/anti-uterotrophic assay in juvenile rats (4 days); format: in vivo, rat; settings: immature female Sprague-Dawley rats, i.p., dose not stated, n = 2
Description: The estrogen and anti-estrogen properties of the compound can be tested in the uterotrophic assay (4 days) in juvenile rats. Immature rats (Sprague-Dawley rats) (female, 18 days old) were divided into 6 test groups. All these animals were i.p. injected with 10 μg of the compound, 100 μg of the compound per day, (100 μg of the compound and 1 μg 176 estradiol), so as to investigate anti-estrogens; and treated with 1 μg of 176 estradiol, wherein 50% DMSO/50% saline was used as injection media. These animals were sacrificed by CO2 asphyxiation on Day 4. Their uteri were extracted, and excessive fats and all liquid were removed. Then the wet weight of the uteri was measured. A part of one corner of the uterus was separated and analyzed histologically. The rest part was used to isolate whole RNA, so as to evaluate the expression of complement component 3 gene.

uteri [2] = experiment: 6 weeks spayed rats, protection of bone and heart: uterine weight; format: in vivo, rat; settings: spayed female Sprague-Dawley CD rats, 6 weeks treatment; n = 2
Description: One day after a Taconic Farm surgery, spayed or pseudo-spayed female Sprague-Dawley CD rats (weighted 240-275 g) were obtained. These animals were fed with food and sufficient water, 3 or 4 rats/cage, in a 12/12 (light/dark) cycle. After one day, all items of investigative treatments were started to these animals. The animals were administered 7 days/week following the instruction, continuously for 6 weeks. In each investigation, one group of rats that were not treated, comparably aged, and subjected to pseudo-surgeries was used as an untreated and estrogen-sufficient control group.
All treatments were conducted with specified concentrations in physiological saline solution containing 1% Tween 80, so that the amount of the treatment was 0.1 mL/100 g body weight. Then 176 estradiol was dissolved in corn oil (20 μg/mL), and administered subcutaneously to rats, 0.1 mL/rat. The result was measured according to the average body weight of each group, and the animals were dosed once […].
Five weeks after the beginning of the treatment and one week before the end of the treatment, the bone mineral density (BMD) of each rat was evaluated. The total densities and trabecular densities of the proximal ends of tibias in the anaesthetized rats were evaluated using XCT-960M (pQCT; Stratec Medizintechik, Pforzheim, Germany). The measuring procedure is shown as follows: 15 minutes before scanning, each rat was anaesthetized by intraperitoneal injection of 45 mg/kg ketamine, 8.5 mg/kg xylazine, and 1.5 mg/kg acepromazine.
The right hindlimb was drawn over the polycarbonate test tube with a diameter of 25 mm, and tied up on the acrylic acid scaffold, so that the anklebone was situated as a right angle and the knee joint was kept horizontally. The polycarbonate test tube was fixed on the sliding platform, so as to be orthogonal with the aperture of pQCTR. The platform was adjusted, so that the distal end of femur and the proximal end of tibia were within the scanning zone. The plane scan image was set as an image with a length of 10 mm and a linear resolution of 0.2 mm.
Soft tissues were eliminated automatically using iterative algorithm. The density (total density) of the remaining bone was shown in a unit of mg/cm^3. In a concentric spiral separator, 55% of the external surface of the bone was peeled off. The density (i.e. trabecular density) of the remaining bone was shown in a unit of mg/cm^3. One week after BMD evaluation, the rats were sacrificed by CO2 asphyxiation. Blood was collected so as to measure cholesterol. Uteri were extracted and weighted. Total cholesterol was measured by Boehringer-Mannheim Hitachi 911 clinic analyzer utilizing a cholesterol/HP kit. A statistical comparison was carried out by way of one-way ANOVA of Dunnet's test.

MCF-7/ERE = MCF-7/ERE anti-proliferation assay (ERE-tk-luciferase); format: cell-based; settings: Homo sapiens, MCF7; n = 2
Description: Stock solutions (usually, 0.1 M) of the test compounds were prepared in DMSO, and then diluted by 10-100 folds in DMSO, so as to achieve the working solutions with a concentration of 1-10 mM. The stock solutions (in DMSO) were stored at 4° C. (0.1 M) or −20° C. (<0.1 M). MCF-7 cells were passaged twice per week using a growth medium (i.e. a D-MEM/F-12 medium). The cells were kept in a 37° C., aerated flask in an incubator filled with 5% CO2/95% humid air. One day before the treatment, a 96-well titration plate was coated with the cells in the medium, 25000 cells/well, and then cultured at 37° C., overnight.
The cells were transfected with 50 μL/well of 1/10 diluted adenovirus 5-ERE-tk-luciferase in the test medium (i.e. a D-MEM/F-12 medium without phenolsulfonphthalein) for 2 h. Then each well was washed once with 150μλ of the test medium. At last, the cells were divided into several replicates and treated at 37° C. for 24 h, wherein 8 wells were treated with 150μλ/well vehicle (≦0.1% v/v DMSO) or the compound diluted by ≧1000 folds with the test medium.
A primary screen of the test compounds was conducted with a single dose of 1 μM, wherein the test compound was alone (an agonist mode) or in combination with 0.1 nM 17β estradiol (EC80: an antagonist mode). Each 96-well plate also contained a vehicle control group (0.1% v/v DMSO) and an agonist control group (0.1 or 1 nM 17β estradiol). In the agonist and/or antagonist mode, a dose-response experiment was conducted for the active compounds which were increased by logarithm of 10^−14˜10^−5 M. Based on these dose-response curves, EC50 and IC50 values were determined respectively. The final titration wells in each treatment groups contained 5 μL of 3×10^−5 M ICC-182780 (10^−6 M final concentration), as an ER antagonist control.
After the treatment, the cells were lysed in 25 μL/well of 1× cell-culture lytic agent (Promega Corporation) for 15 min. Cell lysate (20 μL) was transferred into a 96-well photometer plate. The luciferase activity was measured with 100 μL/well of the substrate for luciferase (Promega Corporation) in MicroLumat LB 96P photometer (EG&G Berthold). Before adding the substrate, a background measurement was performed for each well for 1 s. After adding the substrate, the luciferase activity was measured after 1 s delay and within 10 s. The data obtained from the photometer were analyzed by JMF software (SAS Institute). Using this program, the background reading of the luciferase activity in each well was subtracted, and then the average and standard deviation were calculated for each group of treatment.
The above luciferase data were subjected to a logarithmic transformation, and the weights of the transformed results which were far away from the median was reduced using Huber M-estimator. The transformed and weighted data were analyzed using JMF software, so as to conduct a one-way ANOVA (D test). The results of the compound treatment groups were compared with that of a vehicle control group in the agonist mode, or with that of a positive agonist control group in the antagonist mode (0.1 nM 17β-estradiol). […] In addition, EC50 and/or IC50 values were determined from a nonlinear dose-response curve using JMF software.

Compound	percentage of weight gain of uteri (uteri [1]) [%]	percentage of weight gain of uteri (uteri [2]) [%]	IC50 (MCF-7/ERE) [µM]
O=C(c1ccc(OCC(=O)N2CCOCC2)cc1)c1oc2cc3c(cc2c1-c1ccc(O)cc1)CCCO3 [2-[4-(morpholine-2-oxo-ethoxy)benzoyl]-3-(4-hydroxyphenyl)-6,7-dihydrogen-5H-furo[3,2-g]chromene]	9.8	6.2	4.9
CCN(CC)CCOc1ccc(C(=O)c2oc3cc4c(cc3c2-c2ccc(O)cc2)CCCO4)cc1 [Example 56, 2-[4-(diethylaminoethoxy)benzoyl]-3-(4-hydroxyphenyl)-6,7-dihydrogen-5H-furo[3,2-g]chromene]	12.2	15.1	13.5
CN(C)CCOc1ccc(C(=O)c2oc3cc4c(cc3c2-c2ccc(O)cc2)CCCO4)cc1 [Example 58, 2-[4-(dimethylaminoethoxy)benzoyl]-3-(4-hydroxyphenyl)-6,7-dihydrogen-5H-furo[3,2-g]chromene]	0.6	3.2	22.9
O=C(c1ccc(OCC(=O)N2CCCCC2)cc1)c1oc2cc3c(cc2c1-c1ccc(O)cc1)CCCO3 [Example 60, 2-[4-(piperidine-2-oxo-ethoxy)benzoyl]-3-(4-hydroxyphenyl)-6,7-dihydrogen-5H-furo[3,2-g]chromene]	8.7	12.4	5.6
CCN(CC)C(=O)COc1ccc(C(=O)c2oc3cc4c(cc3c2-c2ccc(O)cc2)CCCO4)cc1 [Example 62, 2-[4-(diethylamino-2-oxo-ethoxy)benzoyl]-3-(4-hydroxyphenyl)-6,7-dihydrogen-5H-furo[3,2-g]chromene]	38.8	23.9	42.3
CN(C)C(=O)COc1ccc(C(=O)c2oc3cc4c(cc3c2-c2ccc(O)cc2)CCCO4)cc1 [Example 64, 2-[4-(dimethylamino-2-oxo-ethoxy)benzoyl]-3-(4-hydroxyphenyl)-6,7-dihydrogen-5H-furo[3,2-g]chromene]	26.2	35.5	21.8
